Structures can show the parent of a compound that is named as a salt. Where two headings read alike, the source gives them in different places.

Drawing on patent US9738642B2, “Triazolopyridine ether derivatives and their use in neurological and pyschiatric disorders” (BRISTOL-MYERS SQUIBB COMPANY, priority 2013, dated 2017), this text covers EC50 for 10 compounds.

This assay deals with T1, human mGluR2 (Homo sapiens, UniProt Q14416).
T1 construct: expressed in transfected cells; host or cells: HEK293 clonal line
Description: mGluR2 cAMP assay. To be noted: clonally expressed human mGluR2 in HEK293, 1 μM forskolin, 1 μM LY-341495, 30 min, CISBIO cAMP kit. It is filed as cell-based. A general note: cAMP levels reflect the balance of adenylyl cyclase and phosphodiesterase activity.

The mark [1] stands for this setting: read-out: EC50 (nM), activity in mGluR2 cAMP assay.

T1 sequence (Q14416 19-872): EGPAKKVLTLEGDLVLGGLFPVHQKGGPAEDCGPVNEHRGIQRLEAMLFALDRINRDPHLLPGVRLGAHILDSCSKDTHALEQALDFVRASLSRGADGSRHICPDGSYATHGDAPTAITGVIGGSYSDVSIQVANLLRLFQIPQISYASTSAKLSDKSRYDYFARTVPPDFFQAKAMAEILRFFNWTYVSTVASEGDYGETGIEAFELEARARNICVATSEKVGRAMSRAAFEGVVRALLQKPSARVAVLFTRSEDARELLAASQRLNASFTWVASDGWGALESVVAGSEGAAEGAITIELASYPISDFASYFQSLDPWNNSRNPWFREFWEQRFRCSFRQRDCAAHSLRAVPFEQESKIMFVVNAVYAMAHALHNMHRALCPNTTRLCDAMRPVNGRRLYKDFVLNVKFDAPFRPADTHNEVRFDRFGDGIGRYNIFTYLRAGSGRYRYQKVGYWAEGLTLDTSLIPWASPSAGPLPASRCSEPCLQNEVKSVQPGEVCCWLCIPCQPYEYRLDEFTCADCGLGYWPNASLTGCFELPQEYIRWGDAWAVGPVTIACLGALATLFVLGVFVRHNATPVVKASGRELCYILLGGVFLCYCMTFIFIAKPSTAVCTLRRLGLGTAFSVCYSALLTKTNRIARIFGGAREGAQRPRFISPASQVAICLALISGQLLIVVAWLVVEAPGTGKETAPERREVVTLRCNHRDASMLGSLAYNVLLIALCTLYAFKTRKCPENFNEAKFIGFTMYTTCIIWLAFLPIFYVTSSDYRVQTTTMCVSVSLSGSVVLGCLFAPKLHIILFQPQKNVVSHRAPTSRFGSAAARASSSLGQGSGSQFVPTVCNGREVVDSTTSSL

Regarding `Clc1cc(COc2ccn3c(CC4CC4)nnc3c2Cl)nc(Cl)n1` [Example 82, 8-Chloro-3-(cyclopropylmethyl)-7-((2,6-dichloropyrimidin-4-yl)methoxy)-[1,2,4]triazolo[4,3-a]pyridine], under setting [1], the half-maximal effective concentration (EC50) (usually the concentration at which the effect is half-maximal) stood at 20 nM.

Turning to `FC(F)(F)c1c(OCC(F)(F)c2ccccc2)ccn2c(CC3CC3)nnc12` [Example 83, 3-(Cyclopropylmethyl)-7-(2,2-difluoro-2-phenylethoxy)-8-(trifluoromethyl)-[1,2,4]triazolo[4,3-a]pyridine], the concentration giving a half-maximal response (EC50) under setting [1] turned out to be 6.1 nM.

With `COC1(c2ccc(F)cc2)CCC(Oc2ccn3c([C@H]4C[C@@H]4F)nnc3c2C(F)(F)F)CC1` (stereo partly drawn) [Example 90, 3-((1R,2S)-2-Fluorocyclopropyl)-7-((1s,4s)-4-(4-fluorophenyl)-4-methoxycyclohexyloxy)-8-(trifluoromethyl)-[1,2,4]triazolo[4,3-a]pyridine], the concentration giving a half-maximal response (EC50) under setting [1] was 19 nM.

As to `COC1(c2ccc(F)cc2)CCC(Oc2ccn3c([C@@H]4C[C@H]4F)nnc3c2C(F)(F)F)CC1` (stereo partly drawn) [Example 91, 3-((1S,2R)-2-Fluorocyclopropyl)-7-((1s,4s)-4-(4-fluorophenyl)-4-methoxycyclohexyloxy)-8-(trifluoromethyl)-[1,2,4]triazolo[4,3-a]pyridine], the EC50 under setting [1] came out at 83 nM.

In the case of `CO[C@]1(c2ccc(F)cc2)CC[C@H](Oc2ccn3c(C4CC4)nnc3c2C(F)(F)F)CC1` [Example 92, 3-Cyclopropyl-7-((1s,4s)-4-(4-fluorophenyl)-4-methoxycyclohexyloxy)-8-(trifluoromethyl)-[1,2,4]triazolo[4,3-a]pyridine], the EC50 under setting [1] turned out to be 35 nM.

On to `CO[C@]1(c2ccc(F)cc2)CC[C@H](Oc2ccn3c(C4CC(F)(F)C4)nnc3c2C(F)(F)F)CC1` [Example 93, 3-(3,3-Difluorocyclobutyl)-7-((1s,4s)-4-(4-fluorophenyl)-4-methoxycyclohexyloxy)-8-(trifluoromethyl)-[1,2,4]triazolo[4,3-a]pyridine], for which, under setting [1], the EC50 turned out to be 20 nM.

In the case of `O[C@]1(c2ccc(F)cc2)CC[C@H](Oc2ccn3c(CC4CC4)nnc3c2C(F)(F)F)CC1` [Example 95, (1s,4s)-4-(3-(Cyclopropylmethyl)-8-(trifluoromethyl)-[1,2,4]triazolo[4,3-a]pyridin-7-yloxy)-1-(4-fluorophenyl)cyclohexanol, TFA salt], under setting [1], the 50% effective concentration (EC50) came to 1 nM.

Consider `Fc1ccc([C@H]2C[C@H](Oc3ccn4c(CC5CC5)nnc4c3C(F)(F)F)C2)cc1` [Example 96, 3-(Cyclopropylmethyl)-7-((1r,3r)-3-(4-fluorophenyl)cyclobutoxy)-8-(trifluoromethyl)-[1,2,4]triazolo[4,3-a]pyridine], for which, where the note is “EC50 (nM), activity in mGluR2 cAMP assay”, the half-maximal effective concentration (EC50) is 0.4 nM.

Consider `CO[C@]1(c2ccc(F)cc2)CC[C@H](Oc2ccn3c(CC(F)(F)F)nnc3c2C(F)(F)F)CC1` [Example 97, 7-((1s,4s)-4-(4-Fluorophenyl)-4-methoxycyclohexyloxy)-3-(2,2,2-trifluoroethyl)-8-(trifluoromethyl)-[1,2,4]triazolo[4,3-a]pyridine], for which the EC50 under setting [1] worked out at 1 nM.

`[2H]C([2H])([2H])O[C@]1(c2ccc(F)cc2)CC[C@H](Oc2ccn3c(CC4CC4)nnc3c2C(F)(F)F)CC1` [Example 99, 3-(Cyclopropylmethyl)-7-((1s,4s)-4-(4-fluorophenyl)-4-(methoxy-d3)cyclohexyloxy)-8-(trifluoromethyl)-[1,2,4]triazolo[4,3-a]pyridine]: the EC50 under setting [1] turned out to be 0.5 nM.
